{"source": "ChEMBL document CHEMBL1134047", "about": "“Binding of a cyclic BIV beta-Tat peptide with its TAR RNA construct” (Bioorg Med Chem Lett, 2001)"}
{"system": "Nucleic Acid", "experiment": "Binding affinity to the ([…]) BIV TAR RNA target was determined by fluorescence binding study", "type": "nucleic-acid assay, Bos taurus", "units": {"Kd": "nM"}}
{"compound": "CC[C@H](C)[C@H](NC(=O)[C@H](CCCN=C(N)N)NC(=O)[C@H](CCCN=C(N)N)NC(=O)CNC(=O)[C@H](CCCCN)NC(=O)CNC(=O)[C@H](CCCN=C(N)N)NC(=O)[C@@H](NC(=O)CNC(=O)[C@H](CCCN=C(N)N)NC(=O)[C@H]1CCCN1C(=O)[C@H](CCCN=C(N)N)NC(=O)[C@H]1CCCN1C(=O)CNC(=O)[C@H](CO)NC(=O)[C@@H](N)CS)[C@@H](C)O)C(=O)N[C@@H](CCCN=C(N)N)C(N)=O", "Kd": 1.28}
{"compound": "CC[C@H](C)[C@@H]1NC(=O)[C@@H](CCCNC(=N)N)NC(=O)[C@H](CCCNC(=N)N)NC(=O)CNC(=O)[C@H](CCCCN)NC(=O)CNC(=O)[C@H](CCCNC(=N)N)NC(=O)[C@@H]([C@@H](C)O)NC(=O)CNC(=O)[C@@H](CCCNC(=N)N)NC(=O)[C@@H]2CCCN2C(=O)[C@@H](CCCNC(=N)N)NC(=O)[C@H]2CCCN2C(=O)CNC(=O)[C@@H](CO)NC(=O)[C@@H](N)CSSC[C@@H](C(=O)O)NC(=O)[C@H](CCCNC(=N)N)NC(=O)[C@@H](CCCNC(=N)N)NC1=O", "Kd": 0.273}
{"compound": "CC[C@H](C)[C@H](NC(=O)[C@H](CCCNC(=N)N)NC(=O)[C@H](CCCNC(=N)N)NC(=O)CNC(=O)[C@H](CCCCN)NC(=O)CNC(=O)[C@H](CCCNC(=N)N)NC(=O)[C@@H](NC(=O)CNC(=O)[C@H](CCCNC(=N)N)NC(=O)[C@H]1CCCN1C(=O)[C@H](CCCNC(=N)N)NC(=O)[C@H]1CCCN1C(=O)CNC(=O)[C@@H](N)CO)[C@@H](C)O)C(=O)N[C@@H](CCCNC(=N)N)C(=O)N[C@@H](CCCNC(=N)N)C(=O)O", "Kd": 1.32}
